Experimental data from ChEMBL document CHEMBL4152362, “Discovery of DS-6930, a potent selective PPARγ modulator. Part II: Lead optimization” (Bioorg Med Chem, 2018).
Values after ≈ are worked out from the molar mass of the structure shown.

Legend:
[1] = Cmax in F344/DuCrlCrlj rat at 300 mg/kg, po via gavage measured on day 28 post dose; type: ADME, organism-based; parameters: dose 300 mg/kg, route oral; conditions: in vivo
[2] = Tmax in F344/DuCrlCrlj rat at 1000 mg/kg, po via gavage measured on day 28 post dose; type: ADME, organism-based; conditions: in vivo
[3] = AUC (0 to 24 hrs) in F344/DuCrlCrlj rat at 300 mg/kg, po via gavage measured on day 28 post dose; type: ADME, organism-based; parameters: time < 24 hr, dose 300 mg/kg, route oral; conditions: in vivo
[4] = AUC (0 to 24 hrs) in F344/DuCrlCrlj rat at 100 mg/kg, po via gavage measured on day 28 post dose; type: ADME, organism-based; parameters: dose 100 mg/kg, time < 24 hr, route oral; conditions: in vivo
[5] = Tmax in F344/DuCrlCrlj rat at 300 mg/kg, po via gavage measured on day 28 post dose; type: ADME, organism-based; conditions: in vivo
[6] = Cmax in F344/DuCrlCrlj rat at 100 mg/kg, po via gavage measured on day 28 post dose; type: ADME, organism-based; parameters: dose 100 mg/kg, route oral; conditions: in vivo
[7] = AUC (0 to 24 hrs) in F344/DuCrlCrlj rat at 1000 mg/kg, po via gavage measured on day 28 post dose; type: ADME, organism-based; parameters: time < 24 hr, dose 1000 mg/kg, route oral; conditions: in vivo
[8] = Drug uptake in F344/DuCrlCrlj rat plasma administered via oral gavage measured on day 28 post dose; type: ADME
[9] = Tmax in F344/DuCrlCrlj rat at 100 mg/kg, po via gavage measured on day 28 post dose; type: ADME, organism-based; conditions: in vivo
[10] = Cmax in F344/DuCrlCrlj rat at 1000 mg/kg, po via gavage measured on day 28 post dose; type: ADME, organism-based; parameters: dose 1000 mg/kg, route oral; conditions: in vivo
[11] = Clearance in cynomolgus monkey at 1 mg/kg, iv by LC-MS/MS; type: ADME, organism-based, Macaca fascicularis; conditions: in vivo
Hepatocyte [12] = assay: Cytotoxicity against F344/DuCrlCrlj rat primary hepatocytes assessed as reduction in mitochondrial enzyme activity at 10 to 100 uM after 24 hrs by WST8 assay; type: cell-based
[13] = Oral bioavailability in cynomolgus monkey at 3 mg/kg by LC-MS/MS; type: ADME, organism-based, Macaca fascicularis; conditions: in vivo
[14] = 1-octanol/PBS distribution co-efficient, log D of the compound at […] at pH 7.4 after 30 mins by HPLC-MS/MS method; type: physicochemical
Hepatocyte [15] = assay: Cytotoxicity against F344/DuCrlCrlj rat primary hepatocytes assessed as reduction in cell viability at 10 to 100 uM after 24 hrs by LDH release assay; type: cell-based
[16] = target: T1, Peroxisome proliferator-activated receptor alpha (Homo sapiens, UniProt Q07869); assay: Agonist activity at recombinant human GAL4-DBD fused PPARalpha LBD expressed in COS7 cells after 24 hrs by luciferase reporter gene assay; type: cell-based
T1 sequence (Q07869 whole entry): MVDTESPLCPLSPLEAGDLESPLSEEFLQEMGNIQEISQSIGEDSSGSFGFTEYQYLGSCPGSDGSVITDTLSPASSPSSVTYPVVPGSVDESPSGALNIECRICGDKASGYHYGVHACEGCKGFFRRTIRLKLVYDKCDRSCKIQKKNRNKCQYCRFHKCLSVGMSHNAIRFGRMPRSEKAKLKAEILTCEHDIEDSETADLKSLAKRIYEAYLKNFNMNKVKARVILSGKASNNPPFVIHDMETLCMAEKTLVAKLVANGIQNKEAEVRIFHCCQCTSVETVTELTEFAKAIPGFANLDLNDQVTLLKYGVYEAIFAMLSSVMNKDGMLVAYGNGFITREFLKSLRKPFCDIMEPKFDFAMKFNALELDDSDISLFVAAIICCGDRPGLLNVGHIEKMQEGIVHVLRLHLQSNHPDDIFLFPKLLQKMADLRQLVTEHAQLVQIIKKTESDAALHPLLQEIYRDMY

[17] = AUClast in cynomolgus monkey at 3 mg/kg, po by LC-MS/MS; type: ADME, organism-based, Macaca fascicularis; parameters: dose 3 mg/kg, time 0 - last, route oral; conditions: in vivo
[18] = Aqueous thermodynamic solubility of the compound in pH 6.8 solution up to 4 hrs by HPLC-UV analysis; type: physicochemical; conditions: read-out: Therm_solubility
[19] = Metabolic stability in human liver microsomes after 0.5 hrs; type: ADME, microsome; conditions: read-out: Stability
[20] = Cmax in cynomolgus monkey at 3 mg/kg, po by LC-MS/MS; type: ADME, organism-based, Macaca fascicularis; parameters: dose 3 mg/kg, route oral; conditions: in vivo
[21] = Half life in cynomolgus monkey at 3 mg/kg, po by LC-MS/MS; type: ADME, organism-based, Macaca fascicularis; conditions: in vivo
[22] = Volume of distribution at steady state in cynomolgus monkey at 1 mg/kg, iv by LC-MS/MS; type: ADME, organism-based, Macaca fascicularis; conditions: in vivo, read-out: Vdss
[23] = Apparent permeability of the compound after 4 hrs by PAMPA; type: ADME
Hepatocyte [24] = assay: Cytotoxicity against F344/DuCrlCrlj rat primary hepatocytes assessed as reduction in cell viability at 100 uM after 24 hrs by LDH release assay; type: cell-based
[25] = Tmax in cynomolgus monkey at 3 mg/kg, po by LC-MS/MS; type: ADME, organism-based, Macaca fascicularis; conditions: in vivo

Compound `Cc1cnc(Oc2ccc3nc(COc4cccc(C(=O)O)c4)n(C)c3c2)c(C)c1.Cl` has a Cmax [1] of 206 µg/mL, a Tmax [2] of 1 h and an AUC at 24 h [3] of 933 µg·h/mL. For the same compound, the AUC at 24 h [4] was 399 µg·h/mL, the Tmax [5] was 0.5 h and the Cmax [6] was 92.8 µg/mL. The AUC at 24 h [7] was 1080 µg·h/mL, the Drug uptake [8] was “Dose-dependent effect” and the Tmax [9] was 0.5 h. For the same compound, the Cmax [10] was 273 µg/mL.

With `Cc1cnc(Oc2ccc3nc(COc4cccc(C(=O)O)c4)n(C)c3c2)c(F)c1` the clearance [11] was 3.07 mL/min/kg, the Activity (Hepatocyte [12]) was “Non-Toxic” and the bioavailability [13] was 8.9%. For the same compound, the logD at 0.5 h [14] was 1.1, the Activity (Hepatocyte [15]) was “Non-Toxic” and the EC50 [16] was > 10 µM. It also gave an AUC(0-t) [17] of 1.47 µg·h/mL, a solubility thermodynamic at 4 h [18] of 9.2 µg/mL (≈ 22.6 µM) and a remaining at 0.5 h [19] of 100%. For the same compound, the Cmax [20] was 0.1 µg/mL, the half-life [21] was 49.8 h and the Vd [22] was 0.88 L/kg. The Papp at 4 h [23] was 5.8 ×10⁻⁶ cm/s, the Activity (Hepatocyte [24]) was “Toxic” and the Tmax [25] was 4 h.
